Results taken from paper PMC4105339 (Antiviral research, 2014).
Marks after values point to notes of the source that are not given here.

How the values were obtained:
[1] = molecular target: B/Perth/211/01 D197E mutant neuraminidase; details: cited from earlier work
[2] = system: A/Fukui/45/04 H3N2 E119V mutant neuraminidase
[3] = system: B/Perth/211/01 D197E mutant neuraminidase
[4] = system: A/Mississippi/03/01 H1N1 H274Y mutant neuraminidase
H3N2 E119V neuraminidase = details: cited from earlier work

| Structure (SMILES) | IC50 [1] [nM] | Time (T½) for reaction rates to reach half the maximum rate of the uninhibited control [2] [min] | Time (T½) for reaction rates to reach half the maximum rate of the uninhibited control [3] | Time (T½) for reaction rates to reach half the maximum rate of the uninhibited control [4] [min] | changes in IC50 from 10 to 60 min in the preincubation reaction (H3N2 E119V neuraminidase) [fold] |
| --- | --- | --- | --- | --- | --- |
| CCC(CC)[C@H](NC(C)=O)[C@@H]1[C@H](O)[C@@H](C(=O)O)C[C@H]1N=C(N)N [Peramivir, peramivir] | 41.5 | >240 | 18.8 min |  |  |
| CC(=O)N[C@H]1[C@H]([C@H](O)[C@H](O)CO)OC(C(=O)O)=C[C@@H]1N=C(N)N [Zanamivir] | 258 |  | 17.0^* min | 43.2 | 1.9 |
